Experimental findings from patent publication US10975069B2, “Sigma-2 receptor ligand drug conjugates as antitumor compounds, methods of synthesis and uses thereof” (priority 2014, dated 2021) are described below.

This data set is described as follows: Toxicity study (necropsy, CBC, clinical chemistry) in tumor bearing mice. The following applies: mouse, in vivo. It counts as in vivo, C57BL/6 mice. The procedure:
Six adult female mice were submitted to necropsy. The strain designation of the mice was C57BL/6. […]
Animal studies were performed according to the animal studies protocol approved by Washington University Institutional Animal Care Facility. In vivo studies with mice were performed to compare the effects of SW V-49s, SV119. Erastin, a combination of SV119 with Erastin, and vehicle. […] C57BL/6 mice (6 weeks old. National Cancer Institute Laboratories) were injected in the right flank with 200 μL single cell suspension of KCKO cells in RPMI medium (25×10^4/10^5 cells per mouse). Mice were randomized into four groups (n=15). Treatment was started when the mean tumor diameter was ^˜5 mm. […] Erastin, equimolar mix of SV119 and Erastin. Tumors were measured every other day with a digital caliper. Several mice from different treatment groups were sent to the Division of Comparative Medicine in our institution for pathologic evaluation. Blood was collected for complete blood count (CBC) and biochemical analysis (AST, ALT, BUN, total bilirubin, and Cr). Organs were examined grossly and histologically.

Consider SW IV-134, for which the “differences in laboratory values (biochemical analysis) versus vehicle” value is reported as “not statistically significant”.
